The text below walks through data of patent US7598273B2, “Inhibitors of the gastric H+, K+-ATPase with enhanced therapeutic properties” (Auspex Pharmaceuticals, Inc, priority 2005, dated 2009).

Molecules are shown by their SMILES.

System in one data set: not given
Assay: not given
Conditions: human, topical or ocular.
Regarding `[2H]c1nc(C([2H])([2H])[S+]([O-])c2nc3cc(OC([2H])([2H])[2H])ccc3[nH]2)c(C([2H])([2H])[2H])c(OC([2H])([2H])[2H])c1C([2H])([2H])[2H]` (centres unmarked) [Example 10, d15-5-methoxy-2-(4-methoxy-3,5-dimethyl-pyridin-2-ylmethane-sulfinyl)-1H-benzimidazole], the “degradation half-life increased as compared to non-isotopically enriched omeprazole” value is given as 20-60% and the “increase in the degradation half-life, as compared to the non-isotopically enriched drug” value (shortened to “increase … to the non-isotopically enriched drug”) is at least 10%.

Regarding `[2H]c1nc(C[S+]([O-])c2nc3cc(OC([2H])([2H])[2H])ccc3[nH]2)c(C([2H])([2H])[2H])c(OC([2H])([2H])[2H])c1C([2H])([2H])[2H]` (centres unmarked) [Example 11, d13-5-methoxy-2-(4-methoxy-3,5-dimethylpyridin-2-ylmethane-sulfinyl)-1H-benzimidazole], the “degradation half-life increased as compared to non-isotopically enriched omeprazole” value is on record as 20-60% and the “increase … to the non-isotopically enriched drug” value is recorded as at least 10%.

In the case of `[2H]c1nc(C[S+]([O-])c2nc3cc(OC([2H])([2H])[2H])ccc3[nH]2)c(C([2H])([2H])[2H])c(OC)c1C([2H])([2H])[2H]` (centres unmarked) [Example 13, d10-5-methoxy-2-(4-methoxy-3,5-dimethylpyridin-2-ylmethane-sulfinyl)-1H-benzimidazole], the “increase … to the non-isotopically enriched drug” value is listed as at least 10%.

In the case of `[2H]c1nc(C([2H])([2H])[S+]([O-])c2nc3cc(OC([2H])([2H])[2H])ccc3[nH]2)c(C([2H])([2H])[2H])c(OC)c1C([2H])([2H])[2H]` (centres unmarked) [Example 14, d12-5-methoxy-2-(4-methoxy-3,5-dimethylpyridin-2-ylmethane-sulfinyl)-1H-benzimidazole], the “increase … to the non-isotopically enriched drug” value is reported as at least 10%.

For the molecule `[2H]c1nc(C([2H])([2H])[S+]([O-])c2nc3cc(OC)ccc3[nH]2)c(C([2H])([2H])[2H])c(OC([2H])([2H])[2H])c1C([2H])([2H])[2H]` (centres unmarked) [Example 18, d12-5-methoxy-2-(4-methoxy-3,5-dimethylpyridin-2-ylmethane-sulfinyl)-1H-benzimidazole], the “increase … to the non-isotopically enriched drug” value is at least 10%.

Turning to `[2H]c1nc(C[S+]([O-])c2nc3cc(OC)ccc3[nH]2)c(C([2H])([2H])[2H])c(OC)c1C([2H])([2H])[2H]` (centres unmarked) [Example 19, d7-5-methoxy-2-(4-methoxy-3,5-dimethylpyridin-2-ylmethane-sulfinyl)-1H-benzimidazole], the “increase … to the non-isotopically enriched drug” value was at least 10%.

Turning to `[2H]c1nc(C[S+]([O-])c2nc3cc(OC)ccc3[nH]2)c(C([2H])([2H])[2H])c(OC([2H])([2H])[2H])c1C([2H])([2H])[2H]` (centres unmarked) [Example 20, d10-5-methoxy-2-(4-methoxy-3,5-dimethylpyridin-2-ylmethane-sulfinyl)-1H-benzimidazole], the “increase … to the non-isotopically enriched drug” value was at least 10%.

As to `[2H]c1nc(C([2H])([2H])[S+]([O-])c2nc3cc(OC)ccc3[nH]2)c(C([2H])([2H])[2H])c(OC)c1C([2H])([2H])[2H]` (centres unmarked) [Example 21, d9-5-methoxy-2-(4-methoxy-3,5-dimethylpyridin-2-ylmethane-sulfinyl)-1H-benzimidazole], the “increase … to the non-isotopically enriched drug” value is at least 10%.

Consider `[2H]C([2H])([2H])Oc1ccc2[nH]c([S+]([O-])C([2H])([2H])c3ncc(C)c(OC([2H])([2H])[2H])c3C)nc2c1` (centres unmarked) [Example 25, d8-5-methoxy-2-(4-methoxy-3,5-dimethylpyridin-2-ylmethane-sulfinyl)-1H-benzimidazole], for which the “increase … to the non-isotopically enriched drug” value is at least 10%.

`[2H]C([2H])([2H])Oc1ccc2[nH]c([S+]([O-])Cc3ncc(C)c(OC)c3C)nc2c1` (centres unmarked) [Example 26, d3-5-methoxy-2-(4-methoxy-3,5-dimethylpyridin-2-ylmethane-sulfinyl)-1H-benzimidazole]: the “increase … to the non-isotopically enriched drug” value is at least 10%.

For the molecule `[2H]C([2H])([2H])Oc1ccc2[nH]c([S+]([O-])Cc3ncc(C)c(OC([2H])([2H])[2H])c3C)nc2c1` (centres unmarked) [Example 27, d6-5-methoxy-2-(4-methoxy-3,5-dimethylpyridin-2-ylmethane-sulfinyl)-1H-benzimidazole], the “increase … to the non-isotopically enriched drug” value is at least 10%.

On to `[2H]C([2H])([2H])Oc1ccc2[nH]c([S+]([O-])C([2H])([2H])c3ncc(C)c(OC)c3C)nc2c1` (centres unmarked) [Example 28, d5-5-methoxy-2-(4-methoxy-3,5-dimethylpyridin-2-ylmethane-sulfinyl)-1H-benzimidazole], for which the “increase … to the non-isotopically enriched drug” value is listed as at least 10%.

`[2H]C([2H])([2H])Oc1c(C)cnc(C([2H])([2H])[S+]([O-])c2nc3cc(OC)ccc3[nH]2)c1C` (centres unmarked) [Example 32, d5-5-methoxy-2-(4-methoxy-3,5-dimethylpyridin-2-ylmethane-sulfinyl)-1H-benzimidazole]: the “increase … to the non-isotopically enriched drug” value is listed as at least 10%.

Take `[2H]C([2H])([2H])Oc1c(C)cnc(C[S+]([O-])c2nc3cc(OC)ccc3[nH]2)c1C` (centres unmarked) [Example 34, d3-5-methoxy-2-(4-methoxy-3,5-dimethylpyridin-2-ylmethane-sulfinyl)-1H-benzimidazole]: the “increase … to the non-isotopically enriched drug” value is at least 10%.

As to `[2H]c1nc(C[S@+]([O-])c2nc3cc(OC([2H])([2H])[2H])ccc3[nH]2)c(C([2H])([2H])[2H])c(OC([2H])([2H])[2H])c1C([2H])([2H])[2H]` [Example 39, d13-(S)-5-methoxy-2-(4-methoxy-3,5-dimethylpyridin-2-ylmethane-sulfinyl)-1H-benzimidazole], the “degradation half-life increased as compared to non-isotopically enriched omeprazole” value is 20-60% and the “increase … to the non-isotopically enriched drug” value was at least 10%.

System in a further data set: not given
Assay: not given
Conditions: at steady state, CYP2C19 poor vs extensive metabolizers; cited from earlier work.
In the case of `COc1ccc2nc([S@@+]([O-])Cc3ncc(C)c(OC)c3C)[nH]c2c1` [esomeprazole, (S)-5-methoxy-2-(4-methoxy-3,5-dimethylpyridin-2-ylmethane-sulfinyl)-1H-benzimidazole], the “ratio of AUC in Poor metabolizers to AUC in the rest of the population (extensive metabolizers)” value is “approximately 2”.

The same data set, now with this note: human plasma, relative to omeprazole; cited from earlier work.
On to `COc1ccc2nc([S@@+]([O-])Cc3ncc(C)c(OC)c3C)[nH]c2c1` [esomeprazole, (S)-5-methoxy-2-(4-methoxy-3,5-dimethylpyridin-2-ylmethane-sulfinyl)-1H-benzimidazole], for which the “half-life in human plasma higher than that of omeprazole” value is given as 20%.

For the next data set, the system named is pylorus-ligated rats. The data set can be described thus: Rat gastric activity, pylorus ligation (antisecretory activity). In kind it is in vivo. The conditions noted are these: PO 30 mg/kg, 30 minutes before ligation, gastric contents collected 4 hours later, Wistar male rats. Here is the method:
Compounds of formula (1) according to the present invention were evaluated for possible antisecretory activity in pylorus-ligated rats. […] Wistar derived male rats weighing 210±10 g were fasted overnight. […] Animals were sacrificed 4 hours later and the gastric contents were collected. After centrifugation, the volume of each sample was measured and acidity was determined by titration.
As to `[2H]c1nc(C([2H])([2H])[S+]([O-])c2nc3cc(OC([2H])([2H])[2H])ccc3[nH]2)c(C([2H])([2H])[2H])c(OC([2H])([2H])[2H])c1C([2H])([2H])[2H]` (centres unmarked) [Example 10, d15-5-methoxy-2-(4-methoxy-3,5-dimethyl-pyridin-2-ylmethane-sulfinyl)-1H-benzimidazole], the “% inhibition relative to vehicle controls: Acidity (μEq/mL)” value was found to be 89%, the “% inhibition relative to vehicle controls: Total Acid Output (μEq/4 hours)” value amounted to 95% and the “% inhibition relative to vehicle controls: Volume (mL/4 hours)” value is on record as 55%.
